The values below are quoted from earlier work in patent US20050169997A1, “Method for preparing resinates” (priority 2002, published 2005).

As for `COc1ccc2c(c1)c(CC(=O)O)c(C)n2C(=O)c1ccc(Cl)cc1` [indomethacin], the “solubility of indomethacin in water” value is recorded as 14 ppm.
